The values below come from patent publication US6992083B2, “Benzoxazol derivatives” (Hoffman-La Roche Inc., priority 2003, dated 2006).

For one test, the target named is T1, hA1 (Homo sapiens, UniProt P30542).
T1 sequence (P30542 1-326): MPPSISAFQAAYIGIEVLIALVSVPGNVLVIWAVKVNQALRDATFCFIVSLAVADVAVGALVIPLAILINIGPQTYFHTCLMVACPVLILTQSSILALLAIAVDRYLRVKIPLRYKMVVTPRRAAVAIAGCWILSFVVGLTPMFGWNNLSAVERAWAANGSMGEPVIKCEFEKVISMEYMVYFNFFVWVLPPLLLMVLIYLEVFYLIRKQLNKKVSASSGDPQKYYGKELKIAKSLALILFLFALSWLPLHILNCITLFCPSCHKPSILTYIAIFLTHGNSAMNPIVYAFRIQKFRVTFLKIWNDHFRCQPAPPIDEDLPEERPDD
Briefly: selectivity to the A1 receptor. It counts as binding. Conditions: selectivity of A2a affinity versus hA1.

Test [1] has as its target T2, human adenosine A2A receptor (Homo sapiens, UniProt P29274).
T2 construct: expressed in transfected cells; host or cells: CHO cells, Semliki Forest virus expression system; washed membrane preparation
Briefly: [3H]-SCH-58261 binding assay, human adenosine A2A receptor. Conditions: recombinant receptor in CHO cell membranes, [3H]-SCH-58261 1 nM, Ki by Cheng-Prussoff; read-out: hA2a pKi (converted). The protocol:
Human Adenosine A2A Receptor
The human adenosine A2A receptor was recombinantly expressed in Chinese hamster ovary (CHO) cells using the semliki forest virus expression system. Cells were harvested, washed twice by centrifugation, homogenised and again washed by centrifugation. The final washed membrane pellet was suspended in a Tris (50 mM) buffer containing 120 mM NaCl, 5 mM KCl, 2 mM CaCl2 and 10 mM MgCl2 (pH 7.4) (buffer A). The [^3H]-SCH-58261 (Dionisotti et al., 1997, Br J Pharmacol 121, 353; 1 nM) binding assay was carried out in 96-well plates in the presence of 2.5 μg of membrane protein, 0.5 mg of Ysi-poly-1-lysine SPA beads and 0.1 U adenosine deaminase in a final volume of 200 μl of buffer A. Non-specific binding was defined using xanthine amine congener (XAC; 2 μM). Compounds were tested at 10 concentrations from 10 μM–0.3 nM. All assays were conducted in duplicate and repeated at least two times. Assay plates were incubated for 1 hour at room temperature before centrifugation and then bound ligand determined using a Packard Topcount scintillation counter. IC50 values were calculated using a non-linear curve fitting program and Ki values calculated using the Cheng-Prussoff equation.

T2 sequence (P29274 whole entry): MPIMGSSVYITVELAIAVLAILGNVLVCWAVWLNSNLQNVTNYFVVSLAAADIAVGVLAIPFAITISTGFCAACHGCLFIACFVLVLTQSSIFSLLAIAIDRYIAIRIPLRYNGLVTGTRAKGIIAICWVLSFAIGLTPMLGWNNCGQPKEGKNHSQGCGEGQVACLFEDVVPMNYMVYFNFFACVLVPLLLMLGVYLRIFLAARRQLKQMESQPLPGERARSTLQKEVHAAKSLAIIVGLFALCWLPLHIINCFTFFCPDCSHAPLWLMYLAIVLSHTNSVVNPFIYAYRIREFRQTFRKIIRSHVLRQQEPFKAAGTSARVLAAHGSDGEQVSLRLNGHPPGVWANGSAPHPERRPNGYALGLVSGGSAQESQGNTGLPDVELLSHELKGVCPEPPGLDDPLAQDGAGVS

On to `COc1ccc(-c2ccccc2)c2oc(NC(=O)c3ccc(F)cc3)nc12` [Example 1, 4-Fluoro-N-(4-methoxy-7-phenyl-benzooxazol-2-yl)-benzamide], for which the “selectivity to hA1” value on hA1 came to 26. The Ki in test [1] is 12 nM.
With `COCCN(C)Cc1ccc(C(=O)Nc2nc3c(OC)ccc(-c4ccccc4)c3o2)cc1` [Example 2, 4-{[(2-Methoxy-ethyl)-methyl-amino]-methyl}-N-(4-methoxy-7-phenyl-benzooxazol-2-yl)-benzamide], on hA1, the “selectivity to hA1” value is 137. The Ki in test [1] is 22.4 nM.
As for `COc1ccc(C2CCOCC2)c2oc(NC(=O)c3ccc(F)cc3)nc12` [Example 5, 4-Fluoro-N-[4-methoxy-7-(tetrahydro-pyran-4-yl)-benzooxazol-2-yl]-benzamide], the “selectivity to hA1” value on hA1 was 140. Moreover, the Ki in test [1] was 21.9 nM.
`COc1ccc(C2CCOCC2)c2oc(NC(=O)c3ccnc(N4CCOCC4)c3)nc12` [Example 9, N-[4-Methoxy-7-(tetrahydro-pyran-4-yl)-benzooxazol-2-yl]-2-morpholin-4-yl-isonicotinamide]: the “selectivity to hA1” value at hA1 is recorded as 351. Moreover, in test [1], the Ki is 21.9 nM.
With `COc1ccc(-c2ccc(F)cc2)c2oc(NC(=O)c3ccnc(CCl)c3)nc12` [Example 13, 2-Chloromethyl-N-[7-(4-fluoro-phenyl)-4-methoxy-benzooxazol-2-yl]-isonicotinamide], the “selectivity to hA1” value on hA1 came out at 227. The Ki in test [1] was 22.9 nM.
`COc1ccc(-c2ccc(F)cc2)c2oc(NC(=O)c3ccnc(C)c3)nc12` [Example 14, N-[7-(4-Fluoro-phenyl)-4-methoxy-benzooxazol-2-yl]-2-methyl-isonicotinamide]: the “selectivity to hA1” value on hA1 is given as 134. Moreover, in test [1], the Ki was 15.8 nM.
On to `COc1ccc(-c2ccc(F)cc2)c2oc(NC(=O)c3ccc(C)nc3)nc12` [Example 17, N-[7-(4-Fluoro-phenyl)-4-methoxy-benzooxazol-2-yl]-6-methyl-nicotinamide], for which the “selectivity to hA1” value at hA1 was determined as 242. For the same compound, the Ki in test [1] was 12.9 nM.
Consider `COc1ccc(-c2ccc(F)cc2)c2oc(NC(=O)c3ccc(F)cc3)nc12` [Example 18, 4-Fluoro-N-[7-(4-fluoro-phenyl)-4-methoxy-benzooxazol-2-yl]-benzamide], for which the “selectivity to hA1” value at hA1 came to 120. Moreover, the Ki in test [1] is 6.46 nM.
The corresponding values for `COc1ccc(-c2ccc(F)cc2)c2oc(NC(=O)c3ccnc(N4CCOCC4)c3)nc12` [Example 20, N-[7-(4-Fluoro-phenyl)-4-methoxy-benzooxazol-2-yl]-2-morpholin-4-yl-isonicotinamide] are 650 and 8.51 nM.
As for `COCc1cc(C(=O)Nc2nc3c(OC)ccc(-c4ccc(F)cc4)c3o2)ccn1` [Example 21, N-[7-(4-Fluoro-phenyl)-4-methoxy-benzooxazol-2-yl]-2-methoxymethyl-isonicotinamide], the “selectivity to hA1” value at hA1 was 96. Further, in test [1], the Ki was 30.2 nM.
